According to ChEMBL document CHEMBL3351473, “Synthesis and biological evaluation of α-1-C-4'-arylbutyl-L-arabinoiminofuranoses, a new class of α-glucosidase inhibitors” (Bioorg Med Chem Lett, 2014):
pIC50: −log10 of the molar value.

Assays:
[1] = molecular target: T1, Sucrase-isomaltase, intestinal (Rattus norvegicus, UniProt P23739); assay: Inhibition of Wistar rat intestinal isomaltase assessed as inhibition of D-glucose release after 30 mins by spectrophotometry
[2] = molecular target: T1, Sucrase-isomaltase, intestinal; assay: Inhibition of Wistar rat intestinal sucrase assessed as inhibition of D-glucose release after 30 mins by spectrophotometry
[3] = Inhibition of Wistar rat intestinal maltase assessed as inhibition of D-glucose release after 30 mins by spectrophotometry

T1 sequence (P23739 1-1013 limits assumed): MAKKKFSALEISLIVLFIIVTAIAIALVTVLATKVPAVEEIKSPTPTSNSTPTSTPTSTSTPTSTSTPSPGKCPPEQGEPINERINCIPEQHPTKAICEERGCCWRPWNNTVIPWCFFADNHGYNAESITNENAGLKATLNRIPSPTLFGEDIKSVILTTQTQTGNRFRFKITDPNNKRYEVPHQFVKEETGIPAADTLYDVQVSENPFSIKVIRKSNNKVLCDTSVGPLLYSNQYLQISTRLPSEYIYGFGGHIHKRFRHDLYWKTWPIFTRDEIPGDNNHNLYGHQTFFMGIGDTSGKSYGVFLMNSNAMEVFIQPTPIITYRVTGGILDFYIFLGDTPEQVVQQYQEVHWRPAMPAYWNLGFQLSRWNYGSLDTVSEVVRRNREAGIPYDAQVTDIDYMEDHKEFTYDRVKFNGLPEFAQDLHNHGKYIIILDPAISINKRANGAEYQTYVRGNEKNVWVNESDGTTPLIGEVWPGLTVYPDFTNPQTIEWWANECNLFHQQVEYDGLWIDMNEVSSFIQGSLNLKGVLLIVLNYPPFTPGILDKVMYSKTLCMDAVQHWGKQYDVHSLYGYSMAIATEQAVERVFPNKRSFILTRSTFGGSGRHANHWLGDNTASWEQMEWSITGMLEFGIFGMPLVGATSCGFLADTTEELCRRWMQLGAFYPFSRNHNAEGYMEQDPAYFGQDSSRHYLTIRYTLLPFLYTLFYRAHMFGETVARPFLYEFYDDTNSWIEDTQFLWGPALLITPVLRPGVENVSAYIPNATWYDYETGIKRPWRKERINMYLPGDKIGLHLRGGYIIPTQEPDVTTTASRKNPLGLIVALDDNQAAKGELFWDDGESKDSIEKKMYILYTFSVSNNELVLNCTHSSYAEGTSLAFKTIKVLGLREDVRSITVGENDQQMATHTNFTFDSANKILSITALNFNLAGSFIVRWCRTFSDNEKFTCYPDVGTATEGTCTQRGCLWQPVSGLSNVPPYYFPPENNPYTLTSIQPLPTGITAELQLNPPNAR
T1 sequence (P23739 1014-1841 limits assumed): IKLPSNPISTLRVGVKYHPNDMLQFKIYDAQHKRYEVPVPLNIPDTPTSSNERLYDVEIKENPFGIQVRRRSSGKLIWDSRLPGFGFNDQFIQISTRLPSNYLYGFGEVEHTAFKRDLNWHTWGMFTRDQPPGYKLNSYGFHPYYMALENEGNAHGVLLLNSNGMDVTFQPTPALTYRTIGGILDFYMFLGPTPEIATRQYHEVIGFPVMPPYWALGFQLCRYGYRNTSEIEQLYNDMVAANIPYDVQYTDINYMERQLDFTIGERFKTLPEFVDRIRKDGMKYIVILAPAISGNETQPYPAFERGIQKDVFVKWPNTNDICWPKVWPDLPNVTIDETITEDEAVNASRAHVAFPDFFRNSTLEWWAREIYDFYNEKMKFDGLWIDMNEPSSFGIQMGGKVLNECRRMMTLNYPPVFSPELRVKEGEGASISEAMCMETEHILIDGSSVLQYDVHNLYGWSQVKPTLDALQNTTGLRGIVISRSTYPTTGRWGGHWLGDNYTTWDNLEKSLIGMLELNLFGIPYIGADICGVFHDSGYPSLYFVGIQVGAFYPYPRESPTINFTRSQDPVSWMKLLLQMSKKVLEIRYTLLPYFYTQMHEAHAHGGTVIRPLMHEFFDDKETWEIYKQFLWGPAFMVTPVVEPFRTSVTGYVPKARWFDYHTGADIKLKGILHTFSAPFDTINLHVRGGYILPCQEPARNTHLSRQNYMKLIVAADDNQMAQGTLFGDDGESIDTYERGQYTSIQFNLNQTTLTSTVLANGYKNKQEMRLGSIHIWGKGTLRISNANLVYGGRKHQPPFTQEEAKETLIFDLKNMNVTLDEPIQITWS

SMILES | pIC50 [1] | pIC50 [2] | pIC50 [3]
OC[C@@H]1N[C@@H](CCCCc2ccc(F)cc2)[C@H](O)[C@H]1O | 5.52 | 6.77 | 
COc1ccc(CCCC[C@@H]2N[C@@H](CO)[C@H](O)[C@H]2O)cc1 | 5.74 | 6.89 | 
Cc1ccc(CCCC[C@@H]2N[C@@H](CO)[C@H](O)[C@H]2O)cc1 | 6.20 | 7.35 | 
OC[C@@H]1N[C@@H](CCCCc2ccccc2)[C@H](O)[C@H]1O |  |  | 6.66
OC[C@@H]1N[C@@H](CCCCc2ccc(O)cc2)[C@H](O)[C@H]1O | 5.22 | 6.96 | 
OC[C@@H]1N[C@@H](CCCCc2cc(F)cc(F)c2)[C@H](O)[C@H]1O | 6.66 | 7.59 | 
